Results from PMC3382171 (PLoS ONE, 2012).

Key:
Experiment in all cases: biochemical
rat DYRK1A = rat DYRK1A (Rattus norvegicus, UniProt Q63470); settings: read-out: Dundee KSS % inhibition at 1uM
Description: (§1) The METi and RAFi were screened against kinase panels (SelectScreen, Invitrogen; University of Dundee, Division of Signal Transduction Therapy, UK; Upstate Biotechnology/Millipore, Billerica, MA). In these selectivity assays the concentration of ATP was set to the Km value of ATP for each kinase tested to allow for a relative potency comparison between the various kinases. The compounds were tested at 1 µM final concentration. […] (A) Kinase selectivity screen (KSS) performed at Upstate Biotechnology. […] (B) KSS performed at University of Dundee (Division of Signal Transduction Therapy). […] (PDF) Click here for additional data file.

SAPK4/p38d = molecular target: T1, SAPK4/p38d (Homo sapiens, UniProt O15264); settings: read-out: Dundee KSS % inhibition at 1uM
T1 construct: gene MAPK13
Description: as §1

rat ROCKII = molecular target: T2, rat ROCKII (Rattus norvegicus, UniProt Q62868); settings: read-out: Dundee KSS % inhibition at 1uM
T2 construct: gene Rock2
Description: as §1

SRPK1 = SRPK1 (Homo sapiens, UniProt Q96SB4); settings: read-out: Dundee KSS % inhibition at 1uM
Description: as §1

MNK2 = molecular target: T3, MNK2 (Homo sapiens, UniProt Q9HBH9); settings: read-out: Dundee KSS % inhibition at 1uM
T3 construct: gene MKNK2
Description: as §1

NEK7 = NEK7 (Homo sapiens, UniProt Q8TDX7); settings: read-out: Dundee KSS % inhibition at 1uM
Description: as §1

P70S6K = molecular target: T4, P70S6K (Homo sapiens, UniProt P23443); settings: read-out: Dundee KSS % inhibition at 1uM
T4 construct: gene RPS6KB1
Description: as §1

JNK2 = molecular target: T5, JNK2 (Homo sapiens, UniProt P45984); settings: read-out: Dundee KSS % inhibition at 1uM
T5 construct: gene MAPK9
Description: as §1

NEK6 = NEK6 (Homo sapiens, UniProt Q9HC98); settings: read-out: Dundee KSS % inhibition at 1uM
Description: as §1

DYRK2 = molecular target: T6, DYRK2 (Homo sapiens, UniProt Q92630); settings: read-out: Dundee KSS % inhibition at 1uM
T6 sequence (Q92630 1-601): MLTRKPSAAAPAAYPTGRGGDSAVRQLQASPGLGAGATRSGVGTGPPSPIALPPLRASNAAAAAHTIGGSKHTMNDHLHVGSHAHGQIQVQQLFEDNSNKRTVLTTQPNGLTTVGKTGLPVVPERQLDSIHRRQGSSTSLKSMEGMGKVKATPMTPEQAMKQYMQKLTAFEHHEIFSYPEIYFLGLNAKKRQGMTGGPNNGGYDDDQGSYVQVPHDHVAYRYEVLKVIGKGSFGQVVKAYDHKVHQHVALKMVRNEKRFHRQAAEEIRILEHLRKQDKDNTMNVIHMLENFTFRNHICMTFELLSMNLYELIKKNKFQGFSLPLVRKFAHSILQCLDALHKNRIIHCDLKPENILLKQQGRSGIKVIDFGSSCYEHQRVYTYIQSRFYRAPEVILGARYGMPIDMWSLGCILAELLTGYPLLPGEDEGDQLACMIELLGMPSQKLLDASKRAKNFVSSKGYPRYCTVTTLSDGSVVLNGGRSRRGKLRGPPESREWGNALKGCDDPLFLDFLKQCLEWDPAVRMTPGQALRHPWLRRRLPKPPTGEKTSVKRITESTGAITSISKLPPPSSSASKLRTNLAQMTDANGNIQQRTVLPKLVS
Description: as §1

MNK1 = molecular target: T7, MNK1 (Homo sapiens, UniProt Q9BUB5); settings: read-out: Dundee KSS % inhibition at 1uM
T7 construct: gene MKNK1
Description: as §1

PIM1 = PIM1 (Homo sapiens, UniProt P11309); settings: read-out: Dundee KSS % inhibition at 1uM
Description: as §1

CAMK-1 = molecular target: T8, CAMK-1 (Homo sapiens, UniProt Q14012); settings: read-out: Dundee KSS % inhibition at 1uM
T8 construct: gene CAMK1
Description: as §1

MLCK = molecular target: T9, MLCK (Homo sapiens, UniProt Q15746); settings: read-out: Dundee KSS % inhibition at 1uM
T9 construct: gene MYLK
Description: as §1

MST2 = molecular target: T10, MST2 (Homo sapiens, UniProt Q13188); settings: read-out: Dundee KSS % inhibition at 1uM
T10 construct: gene STK3
Description: as §1

EF2K = molecular target: T11, EF2K (Homo sapiens, UniProt O00418); settings: read-out: Dundee KSS % inhibition at 1uM
T11 construct: gene EEF2K
Description: as §1

JNK/SAPK1c = molecular target: T12, JNK/SAPK1c (Homo sapiens, UniProt P45983); settings: read-out: Dundee KSS % inhibition at 1uM
T12 construct: gene MAPK8
Description: as §1

PRAK = molecular target: T13, PRAK (Homo sapiens, UniProt Q8IW41); settings: read-out: Dundee KSS % inhibition at 1uM
T13 construct: gene MAPKAPK5
Description: as §1

ZAP70 = ZAP70 (Homo sapiens, UniProt P43403); set-up: gene ZAP70; settings: read-out: Upstate KSS % inhibition at 1uM
Description: as §1, with “In” for “The METi and RAFi were screened against kinase panels (SelectScreen, Invitrogen; University of Dundee, Division of Signal Transduction Therapy, UK; Upstate Biotechnology/Millipore, Billerica, MA). In”

T7 sequence (Q9BUB5 whole entry): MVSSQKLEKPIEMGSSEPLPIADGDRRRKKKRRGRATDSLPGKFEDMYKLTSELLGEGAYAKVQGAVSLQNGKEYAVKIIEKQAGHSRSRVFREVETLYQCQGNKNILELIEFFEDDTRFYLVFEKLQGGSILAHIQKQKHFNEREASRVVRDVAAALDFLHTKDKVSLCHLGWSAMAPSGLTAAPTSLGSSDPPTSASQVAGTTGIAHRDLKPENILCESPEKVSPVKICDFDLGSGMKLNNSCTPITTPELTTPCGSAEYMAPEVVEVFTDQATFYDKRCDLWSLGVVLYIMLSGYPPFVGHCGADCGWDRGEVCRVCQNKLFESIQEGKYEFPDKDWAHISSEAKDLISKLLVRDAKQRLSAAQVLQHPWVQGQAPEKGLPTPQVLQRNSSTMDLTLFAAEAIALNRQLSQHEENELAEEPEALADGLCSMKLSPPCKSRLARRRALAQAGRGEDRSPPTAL
T1 sequence (O15264 whole entry): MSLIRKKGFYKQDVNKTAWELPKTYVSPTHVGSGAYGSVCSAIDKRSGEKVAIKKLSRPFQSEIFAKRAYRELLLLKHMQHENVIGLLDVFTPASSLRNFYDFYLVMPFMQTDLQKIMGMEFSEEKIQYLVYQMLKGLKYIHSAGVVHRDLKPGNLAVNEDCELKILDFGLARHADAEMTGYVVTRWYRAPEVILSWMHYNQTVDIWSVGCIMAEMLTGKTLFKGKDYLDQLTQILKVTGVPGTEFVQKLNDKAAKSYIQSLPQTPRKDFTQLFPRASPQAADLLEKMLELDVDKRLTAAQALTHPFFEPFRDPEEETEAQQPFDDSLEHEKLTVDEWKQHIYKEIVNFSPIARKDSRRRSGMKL
T12 sequence (P45983 whole entry): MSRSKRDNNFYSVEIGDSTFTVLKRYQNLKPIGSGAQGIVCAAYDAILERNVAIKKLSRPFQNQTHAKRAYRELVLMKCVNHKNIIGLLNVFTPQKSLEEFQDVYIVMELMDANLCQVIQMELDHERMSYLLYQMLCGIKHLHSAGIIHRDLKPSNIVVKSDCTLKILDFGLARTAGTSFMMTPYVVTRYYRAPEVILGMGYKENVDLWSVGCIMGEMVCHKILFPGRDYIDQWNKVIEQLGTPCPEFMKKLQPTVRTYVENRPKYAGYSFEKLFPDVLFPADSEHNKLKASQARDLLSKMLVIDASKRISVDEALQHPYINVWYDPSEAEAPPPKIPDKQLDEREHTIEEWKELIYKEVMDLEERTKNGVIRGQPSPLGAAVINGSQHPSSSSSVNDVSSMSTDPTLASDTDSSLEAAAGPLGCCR
NEK6, sequence (Q9HC98 whole entry): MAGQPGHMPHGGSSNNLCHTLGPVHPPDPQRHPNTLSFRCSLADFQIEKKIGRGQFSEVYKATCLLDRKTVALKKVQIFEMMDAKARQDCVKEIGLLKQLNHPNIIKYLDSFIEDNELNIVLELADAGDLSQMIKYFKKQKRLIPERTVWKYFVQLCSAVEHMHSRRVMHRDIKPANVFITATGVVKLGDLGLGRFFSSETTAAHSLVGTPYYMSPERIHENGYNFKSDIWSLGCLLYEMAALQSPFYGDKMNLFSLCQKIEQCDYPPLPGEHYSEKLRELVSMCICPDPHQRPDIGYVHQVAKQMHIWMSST
T11 sequence (O00418 whole entry): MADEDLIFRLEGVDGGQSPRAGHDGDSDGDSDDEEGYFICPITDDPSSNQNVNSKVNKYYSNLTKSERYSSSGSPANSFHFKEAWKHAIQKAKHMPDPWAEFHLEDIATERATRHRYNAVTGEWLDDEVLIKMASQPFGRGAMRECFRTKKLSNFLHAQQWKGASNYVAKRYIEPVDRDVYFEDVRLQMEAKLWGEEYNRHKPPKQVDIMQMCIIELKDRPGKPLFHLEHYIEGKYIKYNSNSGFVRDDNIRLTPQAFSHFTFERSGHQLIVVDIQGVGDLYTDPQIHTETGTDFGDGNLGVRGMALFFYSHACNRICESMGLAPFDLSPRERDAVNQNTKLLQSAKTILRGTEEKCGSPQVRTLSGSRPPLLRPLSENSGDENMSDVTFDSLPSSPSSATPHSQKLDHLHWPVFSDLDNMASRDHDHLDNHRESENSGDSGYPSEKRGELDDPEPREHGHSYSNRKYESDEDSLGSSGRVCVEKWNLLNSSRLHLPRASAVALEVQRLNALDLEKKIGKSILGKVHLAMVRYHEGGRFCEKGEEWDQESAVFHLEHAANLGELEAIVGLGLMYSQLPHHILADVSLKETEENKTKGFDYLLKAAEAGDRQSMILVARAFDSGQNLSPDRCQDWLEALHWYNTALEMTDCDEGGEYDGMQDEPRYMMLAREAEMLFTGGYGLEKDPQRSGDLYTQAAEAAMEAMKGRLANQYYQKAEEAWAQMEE
T5 sequence (P45984 whole entry): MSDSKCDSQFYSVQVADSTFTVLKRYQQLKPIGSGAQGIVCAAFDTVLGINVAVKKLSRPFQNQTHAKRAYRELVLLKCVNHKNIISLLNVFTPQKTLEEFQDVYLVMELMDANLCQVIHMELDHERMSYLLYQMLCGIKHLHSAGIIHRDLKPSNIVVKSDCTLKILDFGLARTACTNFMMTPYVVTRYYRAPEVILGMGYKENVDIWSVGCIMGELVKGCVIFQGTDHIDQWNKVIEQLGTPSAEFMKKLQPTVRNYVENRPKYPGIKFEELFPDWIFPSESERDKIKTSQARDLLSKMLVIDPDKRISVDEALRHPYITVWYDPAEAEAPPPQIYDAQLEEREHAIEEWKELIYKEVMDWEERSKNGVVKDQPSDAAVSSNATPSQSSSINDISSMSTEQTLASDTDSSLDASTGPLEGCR
NEK7, sequence (Q8TDX7 whole entry): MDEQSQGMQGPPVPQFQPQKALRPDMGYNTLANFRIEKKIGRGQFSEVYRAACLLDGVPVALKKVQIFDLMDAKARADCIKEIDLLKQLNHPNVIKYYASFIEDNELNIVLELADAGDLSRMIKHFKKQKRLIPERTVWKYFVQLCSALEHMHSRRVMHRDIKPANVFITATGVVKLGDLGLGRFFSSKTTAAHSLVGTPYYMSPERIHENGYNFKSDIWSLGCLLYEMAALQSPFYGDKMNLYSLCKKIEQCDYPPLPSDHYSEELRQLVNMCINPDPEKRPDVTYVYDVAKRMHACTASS
T13 sequence (Q8IW41 whole entry): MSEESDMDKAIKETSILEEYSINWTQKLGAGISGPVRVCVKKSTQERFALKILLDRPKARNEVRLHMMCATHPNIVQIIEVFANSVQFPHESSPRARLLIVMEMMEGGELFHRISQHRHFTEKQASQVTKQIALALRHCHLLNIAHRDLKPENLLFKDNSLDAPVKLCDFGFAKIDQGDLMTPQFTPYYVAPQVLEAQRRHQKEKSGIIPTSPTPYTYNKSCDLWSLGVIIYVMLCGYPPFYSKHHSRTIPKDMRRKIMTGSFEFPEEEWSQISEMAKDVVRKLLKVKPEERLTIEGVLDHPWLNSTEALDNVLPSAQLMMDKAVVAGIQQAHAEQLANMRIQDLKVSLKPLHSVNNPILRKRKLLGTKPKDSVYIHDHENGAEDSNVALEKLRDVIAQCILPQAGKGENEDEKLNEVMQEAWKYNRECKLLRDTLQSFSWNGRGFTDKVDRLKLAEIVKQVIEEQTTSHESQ
T4 sequence (P23443 whole entry): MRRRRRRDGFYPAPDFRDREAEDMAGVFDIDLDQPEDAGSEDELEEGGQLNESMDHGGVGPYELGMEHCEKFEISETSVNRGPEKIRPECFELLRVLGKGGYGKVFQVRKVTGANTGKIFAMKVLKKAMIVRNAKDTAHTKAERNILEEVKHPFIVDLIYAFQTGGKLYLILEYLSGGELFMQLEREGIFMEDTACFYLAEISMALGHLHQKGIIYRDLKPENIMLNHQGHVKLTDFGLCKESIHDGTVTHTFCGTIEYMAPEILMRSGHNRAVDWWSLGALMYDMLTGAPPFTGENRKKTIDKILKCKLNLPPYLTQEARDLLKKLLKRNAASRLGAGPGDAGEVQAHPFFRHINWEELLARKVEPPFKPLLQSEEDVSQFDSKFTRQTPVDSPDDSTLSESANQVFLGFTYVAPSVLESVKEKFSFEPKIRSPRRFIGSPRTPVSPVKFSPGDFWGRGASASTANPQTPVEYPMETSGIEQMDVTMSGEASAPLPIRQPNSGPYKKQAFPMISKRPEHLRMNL
T3 sequence (Q9HBH9 whole entry): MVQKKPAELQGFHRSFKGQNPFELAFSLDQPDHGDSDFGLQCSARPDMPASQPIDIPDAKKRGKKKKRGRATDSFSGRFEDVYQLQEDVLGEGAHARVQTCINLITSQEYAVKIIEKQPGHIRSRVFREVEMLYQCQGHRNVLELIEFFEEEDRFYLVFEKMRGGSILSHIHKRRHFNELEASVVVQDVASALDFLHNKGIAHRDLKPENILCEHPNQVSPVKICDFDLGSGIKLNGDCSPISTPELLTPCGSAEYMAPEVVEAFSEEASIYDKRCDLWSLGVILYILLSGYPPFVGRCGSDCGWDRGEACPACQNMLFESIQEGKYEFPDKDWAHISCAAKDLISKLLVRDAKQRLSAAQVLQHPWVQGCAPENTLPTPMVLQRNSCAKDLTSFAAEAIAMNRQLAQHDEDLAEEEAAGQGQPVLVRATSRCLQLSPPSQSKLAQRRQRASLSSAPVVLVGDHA
T8 sequence (Q14012 whole entry): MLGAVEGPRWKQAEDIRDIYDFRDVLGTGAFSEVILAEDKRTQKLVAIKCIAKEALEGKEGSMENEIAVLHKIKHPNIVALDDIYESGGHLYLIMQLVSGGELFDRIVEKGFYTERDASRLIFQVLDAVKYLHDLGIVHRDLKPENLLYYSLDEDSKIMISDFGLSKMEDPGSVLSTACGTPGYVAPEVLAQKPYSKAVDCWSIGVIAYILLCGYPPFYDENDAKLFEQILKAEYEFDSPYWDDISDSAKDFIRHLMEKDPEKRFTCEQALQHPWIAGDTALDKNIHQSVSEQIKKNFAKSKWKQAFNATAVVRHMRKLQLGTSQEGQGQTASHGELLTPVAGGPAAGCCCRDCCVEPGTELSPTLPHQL

Work on `OCCn1cc(-c2cnc3nnn(Cc4ccc5ncccc5c4)c3n2)cn1` [METi, PF-04217903] yielded an inhibition at 1 µM (rat DYRK1A) of 2.39%, an inhibition at 1 µM (SAPK4/p38d) of 4.67% and an inhibition at 1 µM (rat ROCKII) of 12.8%. For the same compound, the inhibition at 1 µM (SRPK1) was 13.5%, the inhibition at 1 µM (MNK2) was 13.4% and the inhibition at 1 µM (NEK7) was -7.5%. For the same compound, the inhibition at 1 µM (P70S6K) was -0.67%, the inhibition at 1 µM (JNK2) was 14.9% and the inhibition at 1 µM (NEK6) was 8.99%. It also gave an inhibition at 1 µM (DYRK2) of 14.8%, an inhibition at 1 µM (MNK1) of -8.48% and an inhibition at 1 µM (PIM1) of 4.46%. For the same compound, the inhibition at 1 µM (CAMK-1) was 12.8%, the inhibition at 1 µM (MLCK) was 9.24% and the inhibition at 1 µM (MST2) was 6.16%. The inhibition at 1 µM (EF2K) was -13.1%, the inhibition at 1 µM (JNK/SAPK1c) was 4.04% and the inhibition at 1 µM (PRAK) was 4.01%. The inhibition at 1 µM (ZAP70) was 3%.
